For 109 compounds, logP results are on record in the OPERA property sets (Mansouri et al. 2018).

Where a SMILES comes first, the peptide text is derived from it. [ ]: non-standard residue; d: D form. The star is where a group is joined. Orn = NCCC[CH](N)C(=O)O; NHtBu = CC(C)(C)N*

For orientation: logP means a log measure of how a compound divides between an organic and an aqueous phase. Read a high logP as higher lipophilicity. The compound `CC1CC(C(=O)O)=C(C(=O)O)C(C)C1` (centres undefined) had a logP of 1.53.

For `CC(NC(=O)N(CCCl)N=O)C(=O)O` (centres undefined), the logP is 0.78.

As for `CCOC(=O)C(C)Oc1ccc(Oc2cnc3cc(C(F)(F)F)ccc3n2)cc1` (centres undefined), the logP was 4.37.

Compound `CCN(CC)C(=O)c1cccc2c1C(=O)C(=O)N(CC)C2=O` registered a logP of 0.78.

Regarding `O=C(OCCCl)n1cc(F)c(=O)[nH]c1=O`, the logP came to 0.02.

In turn, `O=S1(=O)NC(C2CCCCC2)=Nc2ccccc21` registered a logP of 2.2.

In the case of `Cc1n[nH]c(C(=O)NC2CCCCC2)c1[N+](=O)[O-]`, the logP worked out at 1.71.

Compound `Cc1cccc(OCCO)c1` registered a logP of 1.76.

For the compound `CN(C)Cc1ccc(-c2cccc(Nc3[nH]ccc3[N+](=O)[O-])c2)o1`, the logP worked out at 3.1.

The compound `CC(=O)NC(Cc1ccccc1)C(=O)NC(CC(=O)O)C(=O)NC(CC(C)C)C(N)=O` (stereo not drawn) (Ac-Phe-Asp-Leu-NH2; configuration not given here) displayed a logP of 0.39.

In turn, `CCCCCCC(=O)OC(C(=O)NC1C(=O)N2C(C(=O)O)=C(C)CSC12)c1ccccc1` (centres undefined) gave a logP of 3.23.

In turn, `CCCCCCOC(=O)Oc1cccc(C2(C(=O)CC)CCN(C)CC2)c1` came in with a logP of 3.38.

`C#CCOc1c(Cl)cc(NC=NOCC=C)cc1Cl` displayed a lipophilicity (logP) of 3.7.

For the compound `CC(C)CCCNC(=O)C1(O)C(C)CC2C3CCC4=CC(=O)C=CC4(C)C3(F)C(O)CC21C` (centres undefined), the logP is 3.93.

As for `Nc1ccn(C2OC3COC2C3O)c(=O)n1` (centres undefined), the logP was -1.64.

The compound `NC(=O)Cc1cccc2cccnc12` had a logP of 1.87.

`Cc1nc(Cl)c([N+](=O)[O-])n1C` gave a logP of 0.87.

`O=S1(=O)NC(C2CC=CC2)=Nc2ccccc21` returned a log partition coefficient (logP) of 1.53.

`Nc1nc(Cl)c2ncn(C3OC(CO)CC3F)c2n1` (centres undefined) showed a logP of 0.28.

`OCCOc1ccccc1Cl`: the logP was 1.81.

Compound `CN1C(=O)NC(=O)C(=O)C1=O` showed a logP of -1.01.

`COC(=O)n1cc(F)c(=O)[nH]c1=O` had a logP of -0.68.

In turn, `CCC(=O)C(CS(=O)(=O)c1ccc(C)cc1)c1ccc(Cl)cc1` (centres undefined) registered a logP of 3.43.

In the case of `CC(=O)NC(CCCN)C(=O)NC(CC(C)C)C(N)=O` (centres undefined) (Ac-[Orn]-Leu-NH2; configuration not given here), the logP is -0.71.

Consider `CCC1COC(Cn2cncn2)(c2ccc(NC(=O)C(F)(F)F)cc2)O1` (centres undefined), for which the logP is 1.08.

The compound `CCC(=O)C(CS(=O)(=O)c1ccc(C)cc1)c1ccccc1` (centres undefined) had a logP of 2.45.

`CNC(=NC#N)NCCSCc1nccs1` gave a logP of 0.89.

Compound `COC1(NC(=O)CSC(F)F)C(=O)N2C(C(=O)OCOC(=O)C(C)(C)C)=C(CSc3nnnn3C)CSC21` (centres undefined) had a logP of 2.31.

In the case of `CC(C1CC1)C(O)(Cn1cncn1)c1ccc(Cl)cc1` (centres undefined), the logP amounted to 2.9.

In the case of `CCCN1C(=O)NC(=O)C(=O)C1=O`, the logP was found to be 0.28.

As to `CCC(=O)C1(c2cccc(OC(=O)OC(C)C)c2)CCN(C)CC1`, the logP was 1.72.

In turn, `CCCn1c(=O)c2nc(-c3ccccc3N)[nH]c2n(CCC)c1=O` displayed a logP of 3.54.

`NS(=O)(=O)c1cc(C(=O)O)cc(N2CCCC2)c1Oc1ccccc1` displayed a logP of 3.92.

With `CCOc1ncnc2c1ncn2C1OC(CO)CC1F` (centres undefined), the logP is 0.8.

`Cc1ccc(C2(Cn3cncn3)OCCO2)cc1` registered a logP of 1.55.

As for `CNc1nccn2cc(-c3ccc(S(C)=O)cc3OC)nc12` (centres undefined), the lipophilicity (logP) came out at 1.88.

As to `CCCCCOc1ccc(NC(=O)OCCN2CCOCC2)cc1`, the logP came out at 3.96.

`CN1CC(O)N(c2nnc(C(C)(C)C)s2)C1=O` (centres undefined) yielded a logP of 1.49.

As for `CC(C)(C)N(NC(=O)c1cccc(F)c1)C(=O)c1ccccc1Cl`, the logP came out at 2.88.

With `CC1CC2C3CCC4=CC(=O)C=CC4(C)C3(F)C(O)CC2(C)C1(O)C(=O)NC(CO)c1ccccc1` (centres undefined), the logP came out at 2.89.

With `CCCOC(=O)C(C(=O)OC)=C1SC=CS1`, the logP was 2.72.

The compound `O=[N+]([O-])c1nccn1CCN1CCCCC1` showed a lipophilicity (logP) of 0.36.

`CC1COC(Cn2cncn2)(c2ccc(Oc3ccc(Cl)cc3)cc2Cl)O1` (centres undefined) yielded a logP of 4.3.

With `CCCCCc1cc(OCc2ccc(-c3ccccc3)cc2)c2c(c1)OC(C)(C)C1CC=C(C)CC21` (centres undefined), the logP is 10.9.

Consider `CCOC(=O)Cc1ccc(O)c2ncccc12`, for which the lipophilicity (logP) was 2.26.

`O=c1ccn(C2C=C(CO)C(O)C2O)c(=O)[nH]1` (centres undefined) yielded a logP of -2.19.

Take `COc1ccc(OC)c(Cc2cnc(N)nc2N)c1`: the logP was determined as 1.7.

Compound `CC(=O)OC1CC2(O)C3CCC4CC(OC5CC(O)C(OC6CC(O)C(OC7CC(O)C(O)C(C)O7)C(C)O6)C(C)O5)CCC4(C)C3CCC2(C)C1C1=CC(=O)OC1` (centres undefined) registered a logP of 2.16.

For `CNc1nc(Cl)c(SC)c(N2CCN(C)CC2)n1`, the logP is 2.99.

In turn, `Cc1n[nH]c(C(=O)NC2CC2)c1[N+](=O)[O-]` yielded a logP of 0.25.

The compound `CC(=O)NC(CCCCN)C(=O)NC(Cc1ccccc1)C(=O)NC(C(N)=O)C(C)C` (centres undefined) registered a logP of 0.51.

On to `CCCNc1nc(C(Cl)(Cl)Cl)nc(C(Cl)(Cl)Cl)n1`, for which the logP was found to be 4.09.

Regarding `Cn1ccc(=O)c2ccccc21`, the logP is 0.44.

Consider `CCN1CC(C(O)C(CC2CCCCC2)NC(=O)C(Cc2c[nH]cn2)NC(=O)C(Cc2ccc(OC)cc2)NC(=O)N(C)CCOCOC)OC1=O` (centres undefined), for which the lipophilicity (logP) was found to be 2.3.

`CCCN1CC(NS(=O)(=O)N(CC)CC)C=C2c3cc(O)ccc3CCC21` (centres undefined): the logP was 2.63.

`CCCCCCCC(=O)OC(C(=O)NC1C(=O)N2C(C(=O)O)=C(C)CSC12)c1ccccc1` (centres undefined): the logP amounted to 3.54.

Compound `Cc1cccc(C(=O)NN(C(=O)c2ccccc2Cl)C(C)(C)C)c1` had a logP of 3.11.

With `CCN(C=Nc1ccn(C2CC(O)C(CO)O2)c(=O)n1)CC` (centres undefined), the log partition coefficient (logP) was -0.59.

For `CS(=O)(=O)N(c1ccccc1[N+](=O)[O-])S(C)(=O)=O`, the logP turned out to be 0.81.

`O=Cn1c2c(c3ccccc31)CCNC2` came in with a logP of 0.26.

For the compound `CCCOc1cccc(NC(=O)OCCN2CCOCC2)c1`, the logP worked out at 3.04.

The compound `Clc1cccc(-c2cc(Cl)c(Cl)c(Cl)c2Cl)c1Cl` came in with a lipophilicity (logP) of 7.32.

`COc1ccc2c(C)cc(=O)n3c(C)cc1c23` yielded a logP of 2.84.

Compound `C[Si](Cn1cncn1)(c1ccc(F)cc1)c1ccc(F)cc1` displayed a logP of 3.7.

On to `CN(C)CCn1nnnc1SCC1=C(C(=O)OCOC(=O)C(C)(C)C)N2C(=O)C(NC(=O)Cc3csc(N)n3)C2SC1` (centres undefined), for which the logP came to 1.57.

In turn, `OCC1COC(Cn2cncn2)(c2ccc(Cl)cc2Cl)O1` (centres undefined) gave a logP of 1.76.

In the case of `COc1c([N+](=O)[O-])nc(C)n1C`, the logP is -0.09.

In the case of `O=C1OC(O)C(C(Cl)Cl)=C1Cl` (centres undefined), the logP was 1.13.

`CC(=O)N[C@@H](CO)C(=O)N[C@H](C(N)=O)C(C)C` (Ac-Ser-Val-NH2) came in with a logP of -1.53.

Compound `CCN(CC)CCSC(=NO)c1nc(C)no1` came in with a logP of 0.71.

`Cc1ccccc1C(=O)NN(C(=O)c1ccccc1Cl)C(C)(C)C` returned a logP of 2.91.

For the compound `CNCCN(C)S(=O)(=O)c1ccc(CONC(N)=O)c([N+](=O)[O-])c1`, the lipophilicity (logP) came to 0.45.

Compound `Cc1ncc([N+](=O)[O-])n1CCOC(=O)N(C)C` had a logP of 0.47.

In the case of `O=C1NC(=O)N(Cc2ccccc2)C(=O)C1=O`, the logP came to 1.02.

Take `OCCOc1ccc(Cl)cc1`: the logP is 1.99.

As to `CNC(=O)OCc1c2c(n3c1C(OC(C)=O)CC3)C(=O)C(C)=C(OC)C2=O` (centres undefined), the logP was determined as 2.39.

Consider `COCCNC(=S)Cn1cnc([N+](=O)[O-])n1`, for which the logP came to 0.25.

With `CSCCC(NC(C)=O)C(=O)NC(Cc1ccccc1)C(N)=O` (centres undefined), the logP worked out at 0.42.

For `Cc1c(Cl)cccc1Cl`, the logP is 3.99.

In turn, `O=C(O)C(OCc1ccc(Cl)cc1)c1ccccc1` (centres undefined) yielded a logP of 2.6.

For `CC1=NCCC1`, the logP turned out to be 1.87.

On to `CCCCCCOC(=O)n1cc(F)c(=O)[nH]c1=O`, for which the logP was found to be 2.04.

For the compound `CCCCCc1ccc(OCC(OC(=O)n2ccnc2)C(C)(C)C)cc1` (centres undefined), the logP came out at 5.26.

`O=C(O)CCCCCNCCc1ccccc1` yielded a logP of -1.3.

Turning to `CC(=O)NC(CCC(=O)O)C(N)=O` (centres undefined), the logP is -2.47.

As to `O=c1nc(N=CN2CCOCC2)ccn1C1OC(CO)C(O)C1O` (centres undefined), the lipophilicity (logP) is -1.66.

For the compound `CCCC(=O)OCCOCn1cnc2c(=O)[nH]c(N)nc21`, the logP was -0.08.

`O=P([O-])(Oc1ccc(Cl)cc1)Oc1ccc(Cl)cc1` gave a logP of 2.64.

For the compound `CC1CCCC(C)C1NC(=O)N(CCCl)N=O` (centres undefined), the logP worked out at 2.57.

In the case of `CS(=O)(=O)CCOCn1ccnc1C=NO`, the logP is -0.84.

Regarding `Cc1nonc1Cc1ccc([N+](=O)[O-])cc1`, the logP came out at 2.21.

For `CCOC(=O)c1ccc(OCC(OC(=S)n2ccnc2)C(C)(C)C)cc1` (centres undefined), the logP is 4.77.

`Oc1ccc(O)c2ncccc12` had a logP of 1.42.

As to `CCC(C)NC(=O)C(=Cc1ccccc1)c1ccccc1` (centres undefined), the logP is 4.05.

The compound `CC(=O)NC(C)C(=O)N1CCCC1C(=O)NC(C)C(=O)NC(C)(C)C` (stereo not drawn) (Ac-Ala-Pro-Ala-NHtBu; configuration not given here) came in with a logP of -0.39.

`Nc1nc(Cl)nc2c1ncn2C1OC(CO)C(O)C1O` (centres undefined): the log partition coefficient (logP) was -0.37.

The compound `CSC(SC)=C(C(=O)OC(C)C)C(=O)OC(C)C` registered a logP of 3.38.

Compound `COc1cccc(NC(=O)OCCN2CCOCC2)c1` yielded a logP of 2.19.

Take `CC(C)(C)C(=O)C(C#N)=NNc1cc(C(F)(F)F)ccc1Cl`: the lipophilicity (logP) was found to be 5.31.

`CCC(=O)OC1(c2ccccc2)CCN(C)C(C)C1C` (centres undefined) gave a logP of 3.13.

For the compound `C=CCn1cccn1`, the logP was 0.35.

On to `CCN1C(=O)C(=O)c2c(Cl)cccc2C1=O`, for which the log partition coefficient (logP) was determined as 1.43.

The compound `CCCOc1ccc2ccc(=O)oc2c1` yielded a logP of 2.86.

`Clc1ccc(-c2ccc(Cl)c(Cl)c2)c(Cl)c1` returned a log partition coefficient (logP) of 6.31.

As for `N#CC(C#N)=NNc1ccc(/N=N/c2ccccc2)cc1`, the logP was determined as 4.25.

`CC(C)CC(C)CC(C)OC(=O)c1ccc(NC(=O)N(C)C)cc1Cl` (centres undefined) registered a logP of 5.15.

The compound `Cc1ccc(C(=O)COc2c(C(=O)c3ccc(Cl)c(C)c3Cl)c(C)nn2C)cc1` yielded a logP of 4.69.

As for `CCN(CC)C(=O)COC(=O)C(C)c1ccc2cc(OC)ccc2c1` (centres undefined), the logP was 3.32.

`Clc1ccc(Oc2nc(C(Cl)(Cl)Cl)nc(C(Cl)(Cl)Cl)n2)cc1` displayed a log partition coefficient (logP) of 5.67.
